Reference: article doi:10.1101/2025.06.03.657755v1 (biorxiv, 2025)

Target: SINV nsP2 (Sindbis virus, UniProt P03317)
Sequence (P03317 541-1347): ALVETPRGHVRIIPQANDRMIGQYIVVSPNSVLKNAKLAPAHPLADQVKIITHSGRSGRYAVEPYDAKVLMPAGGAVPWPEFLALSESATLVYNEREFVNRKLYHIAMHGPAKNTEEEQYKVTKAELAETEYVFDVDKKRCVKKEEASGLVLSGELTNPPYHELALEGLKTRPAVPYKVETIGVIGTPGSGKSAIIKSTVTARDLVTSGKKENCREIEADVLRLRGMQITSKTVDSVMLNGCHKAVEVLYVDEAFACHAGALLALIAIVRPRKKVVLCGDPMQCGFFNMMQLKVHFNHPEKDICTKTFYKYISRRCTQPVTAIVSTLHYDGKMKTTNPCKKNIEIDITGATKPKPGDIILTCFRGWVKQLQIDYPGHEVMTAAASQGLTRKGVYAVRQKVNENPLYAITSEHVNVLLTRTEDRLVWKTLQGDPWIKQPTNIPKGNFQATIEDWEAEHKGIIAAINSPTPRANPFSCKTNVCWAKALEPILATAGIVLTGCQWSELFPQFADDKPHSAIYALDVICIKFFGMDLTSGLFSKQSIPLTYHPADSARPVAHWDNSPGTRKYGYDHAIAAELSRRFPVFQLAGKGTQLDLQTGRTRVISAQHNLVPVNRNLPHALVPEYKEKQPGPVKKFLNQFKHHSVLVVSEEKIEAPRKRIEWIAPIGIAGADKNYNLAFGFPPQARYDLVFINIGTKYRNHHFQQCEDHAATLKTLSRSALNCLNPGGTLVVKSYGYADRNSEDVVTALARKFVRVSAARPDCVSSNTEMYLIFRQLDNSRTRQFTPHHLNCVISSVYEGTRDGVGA

In the case of `Nc1ncnc2c1ncn2[C@@H]1O[C@H](COP(=O)(O)OP(=O)(O)OP(=O)(O)O)[C@@H](O)[C@H]1O` [ATP], the Km is reported as “these additions increase the ATPase Km”.
